Measurements published in patent publication US10485235B2, “Aryloxypyrimidinyl ethers as herbicides” (FMC Corporation, priority 2015, dated 2019).

Key:
Assay type in all cases: in vivo
[1] = tested on: pigweed (Amaranthus retroflexus); experiment: Test A preemergence, pigweed; settings: Preemergence, 0 to 100 scale (0 no effect, 100 complete control)
Text: (§1) Seeds of plant species selected from barnyardgrass (Echinochloa crus-galli), kochia (Kochia scoparia), ragweed (common ragweed, Ambrosia elatior), ryegrass, Italian (Italian ryegrass, Lolium multiflorum), foxtail, giant (giant foxtail, Setaria faberii), and pigweed (Amaranthus retroflexus), were planted into a blend of loam soil and sand and treated preemergence with a directed soil spray using test chemicals formulated in a non-phytotoxic solvent mixture which included a surfactant.
(§2) At the same time, plants selected from these weed species and also wheat (Triticum aestivum), corn (Zea mays), blackgrass (Alopecurus myosuroides), and galium (catchweed bedstraw, Galium aparine), were planted in pots containing the same blend of loam soil and sand and treated with postemergence applications of test chemicals formulated in the same manner. Plants ranged in height from 2 to 10 cm and were in the one- to two-leaf stage for the postemergence treatment. Treated plants and untreated controls were maintained in a greenhouse for approximately 10 days, after which time all treated plants were compared to untreated controls and visually evaluated for injury. Plant response ratings, summarized in Table A, are based on a 0 to 100 scale where 0 is no effect and 100 is complete control. A dash (—) response means no test result.

kochia (Kochia scoparia) [2] = experiment: Test A postemergence, kochia; settings: postemergence, 0 to 100 scale, 0 is no effect, 100 is complete control, approximately 10 days
Text: as §1, §2

[3] = tested on: barnyardgrass (Echinochloa crus-galli); experiment: Test A postemergence, barnyardgrass; settings: postemergence, 0 to 100 scale, 0 is no effect, 100 is complete control, approximately 10 days
Text: as §1, §2

[4] = tested on: ragweed (common ragweed, Ambrosia elatior); experiment: Test A preemergence, ragweed; settings: Preemergence, 0 to 100 scale (0 no effect, 100 complete control)
Text: as §1, §2

corn (Zea mays) = experiment: Test A postemergence, corn; settings: postemergence, 0 to 100 scale, 0 is no effect, 100 is complete control, approximately 10 days
Text: as §1, §2

[5] = tested on: wheat (Triticum aestivum); experiment: Test A postemergence, wheat; settings: postemergence, 0 to 100 scale, 0 is no effect, 100 is complete control, approximately 10 days
Text: as §1, §2

[6] = tested on: ragweed (common ragweed, Ambrosia elatior); experiment: Test A postemergence, ragweed; settings: postemergence, 0 to 100 scale, 0 is no effect, 100 is complete control, approximately 10 days
Text: as §1, §2

[7] = tested on: galium (catchweed bedstraw, Galium aparine); experiment: Test A postemergence, galium; settings: postemergence, 0 to 100 scale, 0 is no effect, 100 is complete control, approximately 10 days
Text: as §1, §2

[8] = tested on: pigweed (Amaranthus retroflexus); experiment: Test A postemergence, pigweed; settings: postemergence, 0 to 100 scale, 0 is no effect, 100 is complete control, approximately 10 days
Text: as §1, §2

[9] = tested on: blackgrass (Alopecurus myosuroides); experiment: Test A postemergence, blackgrass; settings: postemergence, 0 to 100 scale, 0 is no effect, 100 is complete control, approximately 10 days
Text: as §1, §2

[10] = tested on: foxtail, giant (giant foxtail, Setaria faberii); experiment: Test A postemergence, giant foxtail; settings: postemergence, 0 to 100 scale, 0 is no effect, 100 is complete control, approximately 10 days
Text: as §1, §2

[11] = tested on: ryegrass, Italian (Italian ryegrass, Lolium multiflorum); experiment: Test A postemergence, Italian ryegrass; settings: postemergence, 0 to 100 scale, 0 is no effect, 100 is complete control, approximately 10 days
Text: as §1, §2

[12] = tested on: foxtail, giant (giant foxtail, Setaria faberii); experiment: Test A preemergence, giant foxtail; settings: Preemergence, 0 to 100 scale (0 no effect, 100 complete control)
Text: as §1, §2

[13] = tested on: barnyardgrass (Echinochloa crus-galli); experiment: Test A preemergence, barnyardgrass; settings: Preemergence, 0 to 100 scale (0 no effect, 100 complete control)
Text: as §1, §2

kochia (Kochia scoparia) [14] = experiment: Test A preemergence, kochia; settings: Preemergence, 0 to 100 scale (0 no effect, 100 complete control)
Text: as §1, §2

[15] = tested on: ryegrass, Italian (Italian ryegrass, Lolium multiflorum); experiment: Test A preemergence, Italian ryegrass; settings: Preemergence, 0 to 100 scale (0 no effect, 100 complete control)
Text: as §1, §2

rice (Oryza sativa) = experiment: Test B flooded paddy test, rice; settings: 250 g ai/ha, Flood; visual rating after 13 to 15 days; scale 0 to 100, 0 is no effect, 100 is complete control
Method: (§3) Plant species in the flooded paddy test selected from rice (Oryza sativa), sedge, umbrella (small-flower umbrella sedge, Cyperus difformis), ducksalad (Heteranthera limosa), and barnyardgrass (Echinochloa crus-galli) were grown to the 2-leaf stage for testing. At time of treatment, test pots were flooded to 3 cm above the soil surface, treated by application of test compounds directly to the paddy water, and then maintained at that water depth for the duration of the test. Treated plants and controls were maintained in a greenhouse for 13 to 15 days, after which time all species were compared to controls and visually evaluated. Plant response ratings, summarized in Table B, are based on a scale of 0 to 100 where 0 is no effect and 100 is complete control. A dash (—) response means no test result.

[16] = tested on: ducksalad (Heteranthera limosa); experiment: Test B flooded paddy test, ducksalad; settings: 250 g ai/ha, Flood; visual rating after 13 to 15 days; scale 0 to 100, 0 is no effect, 100 is complete control
Method: as §3

[17] = tested on: barnyardgrass (Echinochloa crus-galli); experiment: Test B flooded paddy test, barnyardgrass; settings: 250 g ai/ha, Flood; visual rating after 13 to 15 days; scale 0 to 100, 0 is no effect, 100 is complete control
Method: as §3

[18] = tested on: sedge, umbrella (small-flower umbrella sedge, Cyperus difformis); experiment: Test B flooded paddy test, umbrella sedge; settings: 250 g ai/ha, Flood; visual rating after 13 to 15 days; scale 0 to 100, 0 is no effect, 100 is complete control
Method: as §3

SMILES | Plant response rating, Pigweed ([1]; 31 g ai/ha) | Plant response rating, Pigweed ([1]; 125 g ai/ha) | Plant response rating, Barnyardgrass ([3]; 31 g ai/ha) | Plant response rating, Barnyardgrass ([3]; 125 g ai/ha) | Plant response rating, Ragweed ([4]; 31 g ai/ha) | Plant response rating, Ragweed ([4]; 125 g ai/ha) | Plant response rating, Corn (corn (Zea mays); 31 g ai/ha) | Plant response rating, Corn (corn (Zea mays); 125 g ai/ha) | Plant response rating, Wheat ([5]; 31 g ai/ha) | Plant response rating, Wheat ([5]; 125 g ai/ha) | Plant response rating, Ragweed ([6]; 31 g ai/ha) | Plant response rating, Ragweed ([6]; 125 g ai/ha) | Plant response rating, Galium ([7]; 31 g ai/ha) | Plant response rating, Galium ([7]; 125 g ai/ha) | Plant response rating, Pigweed ([8]; 31 g ai/ha) | Plant response rating, Pigweed ([8]; 125 g ai/ha) | Plant response rating, Blackgrass ([9]; 31 g ai/ha) | Plant response rating, Blackgrass ([9]; 125 g ai/ha) | Plant response rating, Foxtail, Giant ([10]; 31 g ai/ha) | Plant response rating, Foxtail, Giant ([10]; 125 g ai/ha) | also measured
N#CCCCOc1c(C#N)cccc1Oc1ncc(F)cn1 [Compound 37] | 100 | 100 | 10 | 20 | 30 | 70 | 0 | 20 | 0 | 0 | 30 | 50 | 40 | 60 | 60 | 70 | 0 | 10 | 0 | 10 | Plant response rating, Kochia (kochia (Kochia scoparia) [2]; 31 g ai/ha): 50; Plant response rating, Kochia (kochia (Kochia scoparia) [2]; 125 g ai/ha): 80; Plant response rating, Ryegrass, Italian ([11]; 31 g ai/ha): 0; Plant response rating, Ryegrass, Italian ([11]; 125 g ai/ha): 0; Plant response rating, Foxtail, Giant ([12]; 31 g ai/ha): 20; Plant response rating, Foxtail, Giant ([12]; 125 g ai/ha): 50; Plant response rating, Barnyardgrass ([13]; 31 g ai/ha): 0; Plant response rating, Barnyardgrass ([13]; 125 g ai/ha): 20; Plant response rating, Kochia (kochia (Kochia scoparia) [14]; 31 g ai/ha): 30; Plant response rating, Kochia (kochia (Kochia scoparia) [14]; 125 g ai/ha): 80; Plant response rating, Ryegrass, Italian ([15]; 31 g ai/ha): 0; Plant response rating, Ryegrass, Italian ([15]; 125 g ai/ha): 0
Cc1cccc(Oc2ncc(Cl)cn2)c1OC/C=C/C(F)(F)F [Compound 58] | 0 | 100 | 50 | 70 | 0 | 0 | 0 | 10 | 0 | 0 | 0 | 0 | 0 | 30 | 10 | 30 | 0 | 30 | 20 | 70 | Plant response rating, Rice (rice (Oryza sativa)): 15; Plant response rating, Ducksalad [16]: 100; Plant response rating, Barnyardgrass [17]: 0; Plant response rating, Ryegrass, Italian ([11]; 31 g ai/ha): 0; Plant response rating, Ryegrass, Italian ([11]; 125 g ai/ha): 0; Plant response rating, Sedge, Umbrella [18]: 100; Plant response rating, Foxtail, Giant ([12]; 31 g ai/ha): 40; Plant response rating, Foxtail, Giant ([12]; 125 g ai/ha): 90; Plant response rating, Barnyardgrass ([13]; 31 g ai/ha): 40; Plant response rating, Barnyardgrass ([13]; 125 g ai/ha): 90; Plant response rating, Kochia (kochia (Kochia scoparia) [14]; 31 g ai/ha): 0; Plant response rating, Kochia (kochia (Kochia scoparia) [14]; 125 g ai/ha): 0; Plant response rating, Ryegrass, Italian ([15]; 31 g ai/ha): 0; Plant response rating, Ryegrass, Italian ([15]; 125 g ai/ha): 0
